Where a SMILES comes first, the peptide text is derived from it. [ ]: non-standard residue; d: D form. The star is where a group is joined. 5FAM = O=C1OC2(c3ccc(O)cc3Oc3cc(O)ccc32)c2ccc(C(=O)*)cc21
What was measured:
MDA-MB-231 cells = test: Single-cell migration on collagen (IncuCyte video microscopy, DiPer MSD analysis), WT cells; format: cell-based, human; details: WT + mB27, 4 µM; Std. Error 0.6565; WT + vehicle slope 14.65
Method: (§1) For the migration assay, plates were coated with 15 µg/mL rat tail collagen type 1 (BD-Biosciences, Franklin Lakes, NJ, USA). Cells were seeded at 1000 cells per well. Plates were imaged using the IncuCyte Live-Cell Analysis System (Essen Bioscience, Ann Arbor, MI, USA) every 10 min for 24 h. Cell migration was tracked using the “Track Object” program in Metamorph 7.8 (Molecular Devices, LLC., San Jose, CA, USA). The resulting coordinates were analyzed with the DiPer program to measure speed and directional persistence of migration. Experiments were conducted in triplicate, each with at least 20 cells per genotype. The results are presented as the mean ± standard error of the mean. […]
(§2) Migration propensity of calpain-deficient cells was measured by IncuCyte video microscopy of single-cell trajectories on a collagen substrate, which were then analyzed according to an established protocol using three measures of migration: (1) speed of migration (a raw value of displacement from frame to frame); (2) directionality (a ratio of cell displacement to path); and (3) mean square displacement (MSD, how much area a migrating cell has covered).
(§3) To evaluate the effect of this calpain inhibitor, we first measured MDA-MB-231 cancer cell migration in the presence of 4 µM mB27 (Figure 5a,b). […] A thorough quantification and statistical analysis of cell migration are presented in Supplementary Information 12.

[1] = tested on: CAPNS1 KO MDA-MB-231 cells; test: Single-cell migration on collagen (IncuCyte video microscopy, DiPer MSD analysis), CAPNS1 KO cells; format: cell-based, human
Method: as §1, §2, §3

WT MDA-MB-231 tumors = test: Orthotopic engraftment resect-and-wait model of mammary tumor growth and lung metastasis; format: in vivo, Rag2-/- IL2Rγc-/- mice; details: n = 10
Method: Cells were washed, counted, and resuspended in PBS to achieve a concentration of 1,000,000 cells in 40 µL and placed on ice and supplemented with Growth Factor Reduced Matrigel (Corning Inc., Corning, NY, USA, catalog number 354,230) in a 10:40 Matrigel/cell suspension ratio. The resulting mixture was maintained on ice until the engraftment. Matrigel was included in the engraftment suspension to promote initial cell retention in the engrafted bolus in the mammary fat pad and to ensure consistent tumor onset. While MDA-MB-231 cells can form tumors without matrix in Rag2^-/- IL2Rγc^-/- mice, the addition of Matrigel could reduce experimental variability and mimic the basement membrane or extracellular matrix components of the tumor microenvironment.
All animal procedures were approved by the university animal care committee in accordance with guidelines from the Canadian Council on Animal Care. […]
The wound clips were removed one week after the engraftment surgery, and the tumor size was measured daily until it reached 600 mm^3. […] When tumors reached the maximum volume (19 to 22 days after the engraftment surgery, determined individually for every mouse), they were resected by recovery surgery, and mice were then monitored for 12 days before being euthanized with CO2 and cervical dislocation and assessed for metastasis. […]

CC[C@H](C)[C@H](NC(=O)[C@H](Cc1ccc(O)cc1)NC(=O)[C@@H](NC(=O)[C@H](CO)NC(=O)[C@H](CO)NC(=O)[C@H](CCSC)NC(=O)[C@H]1CCCN1C(=O)[C@@H](CC(=O)O)NC(=O)c1ccc2c(c1)C(=O)OC21c2ccc(O)cc2Oc2cc(O)ccc21)[C@@H](C)O)C(=O)N[C@@H](CCC(=O)O)C(=O)N[C@@H](CCC(=O)O)C(=O)N[C@@H](CC(C)C)C(=O)NCC(=O)N[C@@H](CCCCN)C(=O)N[C@@H](CCCNC(=N)N)C(=O)N[C@@H](CCC(=O)O)C(=O)N[C@H](C(=O)N[C@H](C(=O)N[C@H](C(=O)N1CCC[C@H]1C(=O)N1CCC[C@H]1C(=O)N[C@@H](CCCCN)C(=O)N[C@@H](Cc1ccc(O)cc1)C(=O)N[C@@H](CCCNC(=N)N)C(=O)N[C@@H](CCC(=O)O)C(=O)N[C@@H](CC(C)C)C(=O)N[C@@H](CC(C)C)C(=O)N[C@@H](C)C(=O)N[C@@H](CCCNC(=N)N)C(=O)N[C@@H](CCCNC(=N)N)C(=O)N[C@@H](CCCNC(=N)N)C(=O)N[C@@H](CCCNC(=N)N)C(=O)N[C@@H](CCCNC(=N)N)C(=O)N[C@@H](CCCNC(=N)N)C(=O)N[C@H](CCCNC(=N)N)C(=O)N[C@H](CCCNC(=N)N)C(=O)N[C@H](CCCNC(=N)N)C(=O)O)[C@@H](C)CC)[C@@H](C)O)C(C)C [mB27] (5FAM-[dD][dP]MSSTYIEELGKREVTIPPKYRELLARRRRRR[dR][dR][dR]-OH; N-terminus and C-terminus assumed)
Best-fit slope of MSD (MDA-MB-231 cells): 7.652
Best-fit slope of MSD ([1]; CAPNS1 KO + mB27, 4 µM, Std. Error 0.4558, CAPNS1 KO + vehicle slope 3.642): 3.365
Effect of peptide on migration of CAPNS1 KO cells (in words) ([1]; CAPNS1 KO MDA-MB-231 cells, 4 µM peptide, ANCOVA p = 0.6134): no effect
Tumor growth rate (WT MDA-MB-231 tumors; 5 mg/kg/day intraperitoneally for 14 days from 50 mm^3 to 600 mm^3 tumor volume, vehicle 0.431 ± 0.046, p = 0.8554): 0.428 ± 0.024 mm diameter per day
Lung metastasis (WT MDA-MB-231 tumors; 5 mg/kg/day intraperitoneally for 14 days, tumor resection at 600 mm^3, lungs assessed 12 days later, vehicle 1.12 ± 1.35, p = 0.102 (not significant)): 0.34 ± 0.20 metastases per mm^2
